In patent US9255100B2 (BAYER INTELLECTUAL PROPERTY GMBH, priority 2010, dated 2016):

The compounds below were run against T1, N-terminally GST-tagged human full length recombinant Mps-1 kinase (Homo sapiens, UniProt P33981) (assay: Mps-1 kinase assay (TR-FRET)). Conditions: Mps1 IC50 [nM], 10 μM ATP, 1 μM peptide substrate, 60 min at 22° C.
T1 construct: N-terminally GST-tagged human full length recombinant Mps-1 kinase; purchased Invitrogen, Karslruhe, Germany PV4071
T1 sequence (P33981 1-857): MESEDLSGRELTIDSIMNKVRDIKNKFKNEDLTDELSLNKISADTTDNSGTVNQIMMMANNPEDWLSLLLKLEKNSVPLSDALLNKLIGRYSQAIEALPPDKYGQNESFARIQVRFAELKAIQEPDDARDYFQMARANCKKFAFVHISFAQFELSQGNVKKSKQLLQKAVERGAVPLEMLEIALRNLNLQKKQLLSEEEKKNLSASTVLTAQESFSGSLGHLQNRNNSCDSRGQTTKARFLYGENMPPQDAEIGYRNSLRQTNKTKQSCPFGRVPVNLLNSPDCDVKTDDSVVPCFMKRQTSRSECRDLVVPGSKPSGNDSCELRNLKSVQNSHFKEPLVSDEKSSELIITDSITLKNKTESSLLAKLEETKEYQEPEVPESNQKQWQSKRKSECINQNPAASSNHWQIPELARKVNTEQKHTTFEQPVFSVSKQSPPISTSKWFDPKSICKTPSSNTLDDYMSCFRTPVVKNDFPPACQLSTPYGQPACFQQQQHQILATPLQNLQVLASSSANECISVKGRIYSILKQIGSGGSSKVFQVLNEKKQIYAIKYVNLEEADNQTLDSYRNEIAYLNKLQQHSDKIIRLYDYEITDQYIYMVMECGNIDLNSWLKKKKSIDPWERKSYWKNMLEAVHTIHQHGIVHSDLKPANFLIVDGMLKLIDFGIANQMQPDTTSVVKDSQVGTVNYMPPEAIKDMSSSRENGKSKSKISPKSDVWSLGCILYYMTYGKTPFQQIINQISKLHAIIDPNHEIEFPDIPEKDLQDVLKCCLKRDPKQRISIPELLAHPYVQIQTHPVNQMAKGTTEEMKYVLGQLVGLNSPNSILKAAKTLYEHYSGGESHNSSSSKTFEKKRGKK
Assay type: biochemical
How it was run: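 GST-tagged full-length recombinant Mps-1 at about 1 nM final, adjusted per lot for linear range, phosphorylated a biotinylated peptide. Product bound Eu-anti-phospho(Ser/Thr) antibody over 1 h at 22° C and was read by TR-FRET to streptavidin-XLent. Compounds scored for kinase inhibition.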

Row | SMILES | IC50 [nM]
1 | CNC(=O)c1ccc(-c2cnc3c(NCC(C)C)cc(Cl)nn23)cc1 [Example 178, 4-{6-Chloro-8-[(2-methylpropyl)amino]imidazo[1,2-b]pyridazin-3-yl}-N-methylbenzamide] | 172
2 | Cc1cc(-c2cnc3c(NCCC(F)(F)F)cc(Sc4cccc(F)c4)nn23)ccc1C(=O)NC1CC1 [Example 209, N-cyclopropyl-4-{6-[(3-fluorophenyl)sulfanyl]-8-[(3,3,3-trifluoropropyl)amino]imidazo[1,2-b]pyridazin-3-yl}-2-methylbenzamide] | 0.6
3 | CC(C)CNc1cc(-c2cccc3ccccc23)nn2c(-c3ccc(C(=O)NC4CC4)cc3)cnc12 [Example 102, N-cyclopropyl-4-{8-[(2-methylpropyl)amino]-6-(naphthalen-1-yl)imidazo[1,2-b]pyridazin-3-yl}benzamide] | 24.6
4 | Cc1cc(-c2cnc3c(NCCC(F)(F)F)cc(Oc4cccc5ncccc45)nn23)ccc1C(=O)NC1CC1 [Example 170, N-cyclopropyl-2-methyl-4-{6-(quinolin-5-yloxy)-8-[(3,3,3-trifluoro-propyl)amino]imidazo[1,2-b]pyridazin-3-yl}benzamide] | 0.7
5 | COCCNc1cc(NCC(C)(C)O)c2ncc(-c3ccc(C(=O)NC4CC4)c(C)c3)n2n1 [Example 331, N-cyclopropyl-4-{8-[(2-hydroxy-2-methylpropyl)amino]-6-[(2-methoxy-ethyl)amino]imidazo[1,2-b]pyridazin-3-yl}-2-methylbenzamide] | 12.6
6 | COc1ccccc1Nc1cc(NCC(C)(C)O)c2ncc(-c3ccc(C(=O)NC4CC4)c(C)c3)n2n1 [Example 402, N-cyclopropyl-4-{8-[(2-hydroxy-2-methylpropyl)amino]-6-[(2-methoxyphenyl)amino]imidazo[1,2-b]pyridazin-3-yl}-2-methylbenzamide] | 3.4
7 | CNC(=O)c1ccc(-c2cnc3c(NCCOC)cc(Oc4ccccc4)nn23)cc1C [Example 587, 4-{8-[(2-methoxyethyl)amino]-6-phenoxyimidazo[1,2-b]pyridazin-3-yl}-N,2-dimethylbenzamide] | 3.2
8 | Cc1cc(-c2cnc3c(NCC(C)(C)O)cc(Oc4cccc(OCC(C)(C)O)c4)nn23)ccc1C(=O)NC1CC1 [Example 275, N-cyclopropyl-4-{6-[3-(2-hydroxy-2-methylpropoxy)phenoxy]-8-[(2-hydroxy-2-methylpropyl)amino]imidazo[1,2-b]pyridazin-3-yl}-2-methylbenzamide] | 5.4
9 | CNc1cc(Oc2cncc(F)c2)nn2c(-c3ccc(C(=O)NC4CC4)c(C)c3)cnc12 [Example 533, N-cyclopropyl-4-{6-[(5-fluoropyridin-3-yl)oxy]-8-(methylamino)imidazo [1,2-b]pyridazin-3-yl}-2-methylbenzamide] | 1.2
10 | Cc1cc(-c2cnc3c(NCC(C)C)cc(SCC4CCCO4)nn23)ccc1C(=O)NC1CC1 (racemic) [Example 194, (RS)—N-cyclopropyl-2-methyl-4-{8-[(2-methylpropyl)amino]-6-[(tetrahydrofuran-2-ylmethyl)sulfanyl]imidazo[1,2-b]pyridazin-3-yl}benzamide] | 2.5
11 | COc1ccc(Nc2cc(NCC(C)(C)O)c3ncc(-c4ccc(C(=O)NC5CC5)c(C)c4)n3n2)cn1 [Example 366, N-cyclopropyl-4-{8-[(2-hydroxy-2-methylpropyl)amino]-6-[(6-methoxypyridin-3-yl)-amino]imidazo[1,2-b]pyridazin-3-yl}-2-methylbenzamide] | 1.1
12 | Cc1cc(-c2cnc3c(NCC(C)C)cc(Cl)nn23)ccc1C(=O)NC1CC1 [Example 99, 4-{6-Chloro-8-[(2-methylpropyl)amino]imidazo[1,2-b]pyridazin-3-yl}-N-cyclopropyl-2-methylbenzamide] | 29.5
13 | CC=C(C)c1cc(NCC(C)(C)O)c2ncc(-c3ccc(-c4cnc(C5CC5)[nH]4)cc3)n2n1 (mixture of isomers) [Example 1, 1-({6-[(2E/Z)-But-2-en-2-yl]-3-[4-(2-cyclopropyl-1H-imidazol-5-yl)phenyl]imidazo[1,2-b]pyridazin-8-yl}amino)-2-methylpropan-2-ol] | 61.1

The next compounds have a lower IC50 than those just listed; values first:

Row | IC50 [nM] | SMILES
14 | 0.4 | Cc1cc(Nc2cc(NCCC(F)(F)F)c3ncc(-c4ccc(C(=O)NC5CC5)c(C)c4)n3n2)ccc1F [Example 428, N-cyclopropyl-4-{6-[(4-fluoro-3-methylphenyl)amino]-8-[(3,3,3-trifluoropropyl)amino]imidazo[1,2-b]pyridazin-3-yl}-2-methylbenzamide]
15 | < 0.1 | Cc1cc(-c2cnc3c(NCC4CCS(=O)(=O)CC4)cc(Oc4cccc(F)c4)nn23)ccc1C(=O)NC1CC1 [Example 298A, N-cyclopropyl-4-[8-{[(1,1-dioxidotetrahydro-2H-thiopyran-4-yl)methyl]amino}-6-(3-fluorophenoxy)imidazo[1,2-b]pyridazin-3-yl]-2-methylbenzamide]
16 | 0.2 | Cc1cc(-c2cnc3c(NCC(C)(C)N(C)C)cc(Oc4cccc(F)c4)nn23)ccc1C(=O)NC1CC1 [Example 497, N-cyclopropyl-4-[8-{[2-(dimethyl-amino)-2-methylpropyl]amino}-6-(3-fluorophenoxy)imidazo [1,2-b]pyridazin-3-yl]-2-methyl-benzamide]
17 | 0.3 | Cc1cc(-c2cnc3c(NCC(C)(C)N)cc(Oc4ccc(Cl)cc4)nn23)ccc1C(=O)NC1CC1 [Example 521, 4-{8-[(2-amino-2-methyl-propyl)amino]-6-(4-chloro-phenoxy)imidazo[1,2-b]pyridazin-3-yl}-N-cyclopropyl-2-methylbenzamide]
18 | 0.5 | Cc1cc(-c2cnc3c(NCC4CCSCC4)cc(Oc4ccc(Cl)cc4)nn23)ccc1C(=O)NC1CC1 [Example 292, 4-{6-(4-chlorophenoxy)-8-[(tetrahydro-2H-thiopyran-4-ylmethyl)amino]imidazo[1,2-b]pyridazin-3-yl}-N-cyclopropyl-2-methylbenzamide]
19 | < 0.1 | COc1ccc(Sc2cc(NCC(C)(C)O)c3ncc(-c4ccc(C(=O)NC5CC5)c(C)c4)n3n2)cc1 [Example 60B, N-cyclopropyl-4-{8-[(2-hydroxy-2-methylpropyl)amino]-6-[(4-methoxyphenyl)sulfanyl]imidazo[1,2-b]pyridazin-3-yl}-2-methylbenzamide]
20 | 0.2 | Cc1cc(-c2cnc3c(NCCC(F)(F)F)cc(Sc4cc(F)cc(F)c4)nn23)ccc1C(=O)NC1CC1 [Example 251, N-cyclopropyl-4-{6-[(3,5-difluorophenyl)sulfanyl]-8-[(3,3,3-trifluoropropyl)amino]imidazo[1,2-b]pyridazin-3-yl}-2-methylbenzamide]
21 | 0.1 | COc1ccc(Cc2cc(NCCC(F)(F)F)c3ncc(-c4ccc(C(=O)NC5CC5)c(C)c4)n3n2)cc1F [Example 483, N-cyclopropyl-4-{6-(3-fluoro-4-methoxybenzyl)-8-[(3,3,3-tri-fluoropropyl)amino]imidazo [1,2-b]pyridazin-3-yl}-2-methylbenzamide]
22 | 0.2 | Cc1cc(-c2cnc3c(NCCN4CCCC4)cc(Oc4cccc(F)c4)nn23)ccc1C(=O)NC1CC1 [Example 502, N-cyclopropyl-4-[6-(3-fluoro-phenoxy)-8-{[2-(pyrrolidin-1-yl)ethyl]amino}imidazo[1,2-b]pyridazin-3-yl]-2-methyl-benzamide]
